Test system: promyelocyte leukemia cell strain HL-60
Test: Test for induction of cell differentiation in HL-60 cells (NBT reduction ability)
Assay type: cell-based
Settings: for Ratio of cells for which differentiation was induced by each compound alone (%): calculated from NBT reduction ability; for Ratio of cells for which differentiation was induced by each compound in combination with 1 × 10^−7 M of HX630 (%): in combination with 1×10^−7 M HX630 (retinoid synergist)
Protocol: For each of the compounds of the examples, action for inducing cell differentiation was examined for each alone and in combination with 1×10^−7 M of HX630. According to the methods described in Japanese Patent Unexamined Publication (KOKAI) No. (Sho)61-76440/1986, differentiation of the cells of promyelocyte leukemia cell strain HL-60 into granulocytic series cells was determined based on morphological change and measurement of ability to reduce nitro blue tetrazolium (NBT). The ratios (%) of differentiated cells shown in the following table are those calculated from NBT reduction ability. HX630 is a retinoid synergist that enhances actions of retinoids, and the concentrations of −8, −7 and −6 mean that each compound was added at concentrations of 1×10^−8 M, 1×10^−7 M and 1×10^−6 M, respectively.

[1] = compound concentration -6 (1×10^−6 M)
[2] = compound concentration -7 (1×10^−7 M)
[3] = compound concentration -8 (1×10^−8 M)

With `COc1ccc(C#Cc2ccc3c(c2)C(C)(C)CCC3(C)C)ccc1=O` [Tp141] the “Ratio of cells for which differentiation was induced by each compound alone (%)” value (concentration -6 (1×10^−6 M)) was 6.4%, the “Ratio of cells for which differentiation was induced by each compound alone (%)” value (concentration -7 (1×10^−7 M)) was 3.3% and the “Ratio of cells for which differentiation was induced by each compound alone (%)” value (concentration -8 (1×10^−8 M)) was 2.2%. For the same molecule, the “Ratio of cells for which differentiation was induced by each compound in combination with 1 × 10^−7 M of HX630 (%)” value [1] was 84%, the “Ratio of cells for which differentiation was induced by each compound in combination with 1 × 10^−7 M of HX630 (%)” value [2] was 7% and the “Ratio of cells for which differentiation was induced by each compound in combination with 1 × 10^−7 M of HX630 (%)” value [3] was 4.1%.
With `Cc1cc2c(cc1C#Cc1ccc(O)c(=O)cc1)C(C)(C)CCC2(C)C` [Tp145] the “Ratio of cells for which differentiation was induced by each compound alone (%)” value (concentration -6 (1×10^−6 M)) was 70%, the “Ratio of cells for which differentiation was induced by each compound alone (%)” value (concentration -7 (1×10^−7 M)) was 76% and the “Ratio of cells for which differentiation was induced by each compound alone (%)” value (concentration -8 (1×10^−8 M)) was 73%. For the same molecule, the “Ratio of cells for which differentiation was induced by each compound in combination with 1 × 10^−7 M of HX630 (%)” value [1] was 77%, the “Ratio of cells for which differentiation was induced by each compound in combination with 1 × 10^−7 M of HX630 (%)” value [2] was 75% and the “Ratio of cells for which differentiation was induced by each compound in combination with 1 × 10^−7 M of HX630 (%)” value [3] was 82%.
For `CC1(C)CCC(C)(C)c2cc(C#Cc3ccc(NN)c(=O)cc3)ccc21` [Tp146], the “Ratio of cells for which differentiation was induced by each compound alone (%)” value (concentration -6 (1×10^−6 M)) was 69%, the “Ratio of cells for which differentiation was induced by each compound alone (%)” value (concentration -7 (1×10^−7 M)) was 2.2% and the “Ratio of cells for which differentiation was induced by each compound alone (%)” value (concentration -8 (1×10^−8 M)) was 3.6%. The “Ratio of cells for which differentiation was induced by each compound in combination with 1 × 10^−7 M of HX630 (%)” value [1] was 83%, the “Ratio of cells for which differentiation was induced by each compound in combination with 1 × 10^−7 M of HX630 (%)” value [2] was 91% and the “Ratio of cells for which differentiation was induced by each compound in combination with 1 × 10^−7 M of HX630 (%)” value [3] was 66%.
For `CC1(C)CCC(C)(C)c2cc(C#Cc3cccc(=O)cc3)ccc21` [Tp149], the “Ratio of cells for which differentiation was induced by each compound alone (%)” value (concentration -6 (1×10^−6 M)) was 40%, the “Ratio of cells for which differentiation was induced by each compound alone (%)” value (concentration -7 (1×10^−7 M)) was 4% and the “Ratio of cells for which differentiation was induced by each compound alone (%)” value (concentration -8 (1×10^−8 M)) was 1.4%. For the same molecule, the “Ratio of cells for which differentiation was induced by each compound in combination with 1 × 10^−7 M of HX630 (%)” value [1] was 40%, the “Ratio of cells for which differentiation was induced by each compound in combination with 1 × 10^−7 M of HX630 (%)” value [2] was 85% and the “Ratio of cells for which differentiation was induced by each compound in combination with 1 × 10^−7 M of HX630 (%)” value [3] was 3.5%.
With `CC1(C)CCC(C)(C)c2cc(CCc3ccc(O)c(=O)cc3)ccc21` [Tp150] the “Ratio of cells for which differentiation was induced by each compound alone (%)” value (concentration -6 (1×10^−6 M)) was 60%, the “Ratio of cells for which differentiation was induced by each compound alone (%)” value (concentration -7 (1×10^−7 M)) was 5.4% and the “Ratio of cells for which differentiation was induced by each compound alone (%)” value (concentration -8 (1×10^−8 M)) was 1.5%. For the same molecule, the “Ratio of cells for which differentiation was induced by each compound in combination with 1 × 10^−7 M of HX630 (%)” value [1] was 50%, the “Ratio of cells for which differentiation was induced by each compound in combination with 1 × 10^−7 M of HX630 (%)” value [2] was 80% and the “Ratio of cells for which differentiation was induced by each compound in combination with 1 × 10^−7 M of HX630 (%)” value [3] was 9%.
In the case of `CC(C)(C)c1cc(C#Cc2ccc(O)c(=O)cc2)cc(C(C)(C)C)c1` [Tp155], the “Ratio of cells for which differentiation was induced by each compound alone (%)” value (concentration -6 (1×10^−6 M)) is reported as 62.5%, the “Ratio of cells for which differentiation was induced by each compound alone (%)” value (concentration -7 (1×10^−7 M)) is reported as 24% and the “Ratio of cells for which differentiation was induced by each compound alone (%)” value (concentration -8 (1×10^−8 M)) is reported as 2.7%. The “Ratio of cells for which differentiation was induced by each compound in combination with 1 × 10^−7 M of HX630 (%)” value [1] was 78%, the “Ratio of cells for which differentiation was induced by each compound in combination with 1 × 10^−7 M of HX630 (%)” value [2] was 89% and the “Ratio of cells for which differentiation was induced by each compound in combination with 1 × 10^−7 M of HX630 (%)” value [3] was 68%.
For `CC1(C)CCC(C)(C)c2cc(N=Nc3ccc(O)c(=O)cc3)ccc21` [Tp160], the “Ratio of cells for which differentiation was induced by each compound alone (%)” value (concentration -6 (1×10^−6 M)) was 32%, the “Ratio of cells for which differentiation was induced by each compound alone (%)” value (concentration -7 (1×10^−7 M)) was 34.4% and the “Ratio of cells for which differentiation was induced by each compound alone (%)” value (concentration -8 (1×10^−8 M)) was 18.5%. For the same molecule, the “Ratio of cells for which differentiation was induced by each compound in combination with 1 × 10^−7 M of HX630 (%)” value [1] was 90%, the “Ratio of cells for which differentiation was induced by each compound in combination with 1 × 10^−7 M of HX630 (%)” value [2] was 84% and the “Ratio of cells for which differentiation was induced by each compound in combination with 1 × 10^−7 M of HX630 (%)” value [3] was 81%.
For `CC(C)(C)c1cc(N=Nc2ccc(O)c(=O)cc2)cc(C(C)(C)C)c1` [Tp170], the “Ratio of cells for which differentiation was induced by each compound alone (%)” value (concentration -6 (1×10^−6 M)) was 2.3%, the “Ratio of cells for which differentiation was induced by each compound alone (%)” value (concentration -7 (1×10^−7 M)) was 0.8% and the “Ratio of cells for which differentiation was induced by each compound alone (%)” value (concentration -8 (1×10^−8 M)) was 1.1%. For the same molecule, the “Ratio of cells for which differentiation was induced by each compound in combination with 1 × 10^−7 M of HX630 (%)” value [1] was 10%, the “Ratio of cells for which differentiation was induced by each compound in combination with 1 × 10^−7 M of HX630 (%)” value [2] was 2.3% and the “Ratio of cells for which differentiation was induced by each compound in combination with 1 × 10^−7 M of HX630 (%)” value [3] was 0.5%.
`CC1(C)CCC(C)(C)c2cc(-c3cccc(-c4ccc(O)c(=O)cc4)c3)ccc21` [Tp190] was tested, and the “Ratio of cells for which differentiation was induced by each compound alone (%)” value (concentration -6 (1×10^−6 M)) was 0%, the “Ratio of cells for which differentiation was induced by each compound alone (%)” value (concentration -7 (1×10^−7 M)) was 32% and the “Ratio of cells for which differentiation was induced by each compound alone (%)” value (concentration -8 (1×10^−8 M)) was 1.6%. The “Ratio of cells for which differentiation was induced by each compound in combination with 1 × 10^−7 M of HX630 (%)” value [1] was 50%, the “Ratio of cells for which differentiation was induced by each compound in combination with 1 × 10^−7 M of HX630 (%)” value [2] was 90% and the “Ratio of cells for which differentiation was induced by each compound in combination with 1 × 10^−7 M of HX630 (%)” value [3] was 77%.
In the case of `CC1(C)CCC(C)(C)c2cc(-c3ccc(-c4ccc(O)c(=O)cc4)o3)ccc21` [Tp200], the “Ratio of cells for which differentiation was induced by each compound alone (%)” value (concentration -6 (1×10^−6 M)) is reported as 36%, the “Ratio of cells for which differentiation was induced by each compound alone (%)” value (concentration -7 (1×10^−7 M)) is reported as 14% and the “Ratio of cells for which differentiation was induced by each compound alone (%)” value (concentration -8 (1×10^−8 M)) is reported as 2%. For the same molecule, the “Ratio of cells for which differentiation was induced by each compound in combination with 1 × 10^−7 M of HX630 (%)” value [1] was 50%, the “Ratio of cells for which differentiation was induced by each compound in combination with 1 × 10^−7 M of HX630 (%)” value [2] was 95% and the “Ratio of cells for which differentiation was induced by each compound in combination with 1 × 10^−7 M of HX630 (%)” value [3] was 77%.
For `CC1(C)CCC(C)(C)c2cc(-c3ccc(-c4ccc(O)c(=O)cc4)s3)ccc21` [Tp210], the “Ratio of cells for which differentiation was induced by each compound alone (%)” value (concentration -6 (1×10^−6 M)) was 11%, the “Ratio of cells for which differentiation was induced by each compound alone (%)” value (concentration -7 (1×10^−7 M)) was 6% and the “Ratio of cells for which differentiation was induced by each compound alone (%)” value (concentration -8 (1×10^−8 M)) was 0.8%. The “Ratio of cells for which differentiation was induced by each compound in combination with 1 × 10^−7 M of HX630 (%)” value [1] was 91%, the “Ratio of cells for which differentiation was induced by each compound in combination with 1 × 10^−7 M of HX630 (%)” value [2] was 91% and the “Ratio of cells for which differentiation was induced by each compound in combination with 1 × 10^−7 M of HX630 (%)” value [3] was 64%.
`CC1(C)CCC(C)(C)c2cc3cc(-c4ccc(O)c(=O)cc4)ccc3cc21` [Tp250] was tested, and the “Ratio of cells for which differentiation was induced by each compound alone (%)” value (concentration -6 (1×10^−6 M)) was 56%, the “Ratio of cells for which differentiation was induced by each compound alone (%)” value (concentration -7 (1×10^−7 M)) was 66% and the “Ratio of cells for which differentiation was induced by each compound alone (%)” value (concentration -8 (1×10^−8 M)) was 63%. For the same molecule, the “Ratio of cells for which differentiation was induced by each compound in combination with 1 × 10^−7 M of HX630 (%)” value [1] was 79%, the “Ratio of cells for which differentiation was induced by each compound in combination with 1 × 10^−7 M of HX630 (%)” value [2] was 84% and the “Ratio of cells for which differentiation was induced by each compound in combination with 1 × 10^−7 M of HX630 (%)” value [3] was 91%.
In the case of `CC1(C)CCC(C)(C)c2cc3sc(-c4ccc(O)c(=O)cc4)cc3cc21` [Tp260], the “Ratio of cells for which differentiation was induced by each compound alone (%)” value (concentration -6 (1×10^−6 M)) is reported as 55%, the “Ratio of cells for which differentiation was induced by each compound alone (%)” value (concentration -7 (1×10^−7 M)) is reported as 20% and the “Ratio of cells for which differentiation was induced by each compound alone (%)” value (concentration -8 (1×10^−8 M)) is reported as 10%. The “Ratio of cells for which differentiation was induced by each compound in combination with 1 × 10^−7 M of HX630 (%)” value [1] was 67%, the “Ratio of cells for which differentiation was induced by each compound in combination with 1 × 10^−7 M of HX630 (%)” value [2] was 83% and the “Ratio of cells for which differentiation was induced by each compound in combination with 1 × 10^−7 M of HX630 (%)” value [3] was 91%.

— patent US20040082550A1, “Tropolone derivative” (priority 2000, published 2004)
